Results reported in patent publication US6537991B1, “Method of treating a peripheral neuropathic pain” (AstraZeneca AB, priority 1999, dated 2003).
Like-named read-outs stand apart in the source and are kept apart here.

How the values were obtained:
[1] = test system: chronic constrictive injury (CCI) model (loosely ligated common sciatic nerve); assay: chronic constrictive injury (CCI) model of peripheral mononeuropathy; assay type: in vivo, rat; details: oral test doses of 0.3, 3 and 30 mg/kg/day (dosed four times a day)
Text: The development of a rodent model of peripheral mononeuropathy (Pain, 33, 1988, 87-107; Exp Brain Res, 113, 1997, 200-206; and Exp Brain Res, 120, 1998, 432-438) has provided a new approach for studies of post-injury neuropathic pain. The model produces neuropathic pain syndromes in the rat by loosely ligating the common sciatic nerve and has been described as a chronic constrictive injury (CCI) model. The behavioural, morphological and autoradiographic data obtained from the rodents in this model closely represent the clinical features of post-injury neuropathic pain. […] This model has value therefore in predicting efficacy of compounds against neuropathic pain.
The identification of compounds which are useful in the treatment or prevention of neuropathic pain is the subject of the present invention. These properties may be assessed, for example, using the CCI model as described in Pain, 33, 1988, 87-107.

[2] = test system: chronic constrictive injury (CCI) model (loosely ligated common sciatic nerve); details: cited from earlier work

SMILES: CCN(Cc1cc(Cl)ccc1OCC(C)C)c1ccc(C(=O)NS(=O)(=O)c2c(C)noc2C)nn1 [d), N-(3,5-dimethylisoxazol-4-ylsulphonyl)-6-[N-(5-chloro-2-(2-methylpropoxy)benzyl)-N-ethylamino]pyridazine-3-carboxamide]
- activity in the CCI model [1]: demonstrates activity

SMILES: NCC1(CC(=O)O)CCCCC1 [gabapentin]
- activity in the CCI model ([2]; Eur J Pharmacol, 324, 1997, 157-160): demonstrates activity

SMILES: O=C(c1ccccc1)c1ccc2n1CCC2C(=O)O (stereo not drawn) [ketorolac tromethamine]
- activity compared to morphine ([2]; dosed intrathecally, Can J Anaesth, 1996, 43, 967): modest activity
